Measurements from PubChem BioAssay AID330 (DTP/NCI, 2004).
“And” between values parts separate entries of the source, which are not always exact repeats. Identical values can stand only once. Inconclusive results and toxic doses are left out. How the source made its calls: active means survival T/C of 150% or more; inactive means T/C below 125% in these data.

System: P388 leukemia ip, CD2F1 mice, survival T/C
Experiment: NCI In Vivo Anticancer Drug Screen. Data for tumor model P388 Leukemia (intraperitoneal) in CD2F1 (CDF1) mice
Conditions: endpoint: median survival time, higher = longer survival
Method in brief: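 Mice carrying the transplanted tumor received test compound or vehicle. Survival was recorded in each group, and the value is the treated-group measurement divided by that of the vehicle-treated control group.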

[1] = dose: 25.0 mg/kg/injection, schedule: Q01DX009 (ip), vehicle: saline with Tween-80
[2] = dose: 50.0 mg/kg/injection, schedule: Q01DX009 (ip), vehicle: saline with Tween-80
[3] = dose: 100.0 mg/kg/injection, schedule: Q01DX009 (ip), vehicle: saline with Tween-80
[4] = dose: 50.0 mg/kg/injection, schedule: Q01DX005 (ip), vehicle: saline with Tween-80
[5] = dose: 100.0 mg/kg/injection, schedule: Q01DX005 (ip), vehicle: saline with Tween-80
[6] = dose: 200.0 mg/kg/injection, schedule: Q01DX005 (ip), vehicle: saline with Tween-80
[7] = dose: 12.5 mg/kg/injection, schedule: Q01DX005 (ip), vehicle: saline with Tween-80
[8] = dose: 25.0 mg/kg/injection, schedule: Q01DX005 (ip), vehicle: saline with Tween-80
[9] = dose: 200.0 mg/kg/injection, schedule: Q01DX009 (ip), vehicle: saline with Tween-80
[10] = dose: 400.0 mg/kg/injection, schedule: Q01DX009 (ip), vehicle: saline with Tween-80

Measured: T/C

CC(=O)OC1CCC2(C)C(=O)CCC3C=C(C(=O)C3CSc3ccc(Br)cc3)C(O)CC2C1(C)C (stereo unspecified)
inactive: dose: 11.25 mg/kg/injection, schedule: Q01DX009 (ip), vehicle: Klucel (hydroxypropylcellulose) (HPC) 95 % of control | dose: 22.5 mg/kg/injection, schedule: Q01DX009 (ip), vehicle: Klucel (hydroxypropylcellulose) (HPC) 100 % of control | dose: 45.0 mg/kg/injection, schedule: Q01DX009 (ip), vehicle: Klucel (hydroxypropylcellulose) (HPC) 94 % of control | dose: 90.0 mg/kg/injection, schedule: Q01DX009 (ip), vehicle: Klucel (hydroxypropylcellulose) (HPC) 100 % of control

Cc1cc(Cl)ccc1NC(=O)C(=O)C(C#N)c1c(Cl)cccc1Cl (stereo unspecified)
inactive: dose: 100.0 mg/kg/injection, schedule: Q04DX002 (ip), vehicle: saline with Tween-80 101 % of control | dose: 200.0 mg/kg/injection, schedule: Q04DX002 (ip), vehicle: saline with Tween-80 105 % of control | dose: 400.0 mg/kg/injection, schedule: Q04DX002 (ip), vehicle: saline with Tween-80 100 % of control

COc1ccc(-n2c(-c3ccc(Cl)cc3)csc2=N)c(OC)c1
inactive: [1] 97 % of control | [2] 106 % of control | dose: 50.0 mg/kg/injection, schedule: Q01DX009 (ip), vehicle: saline 114 % of control | [3] 100 % of control | dose: 100.0 mg/kg/injection, schedule: Q01DX009 (ip), vehicle: saline 109 % of control

COC(=O)c1c(-c2ccccc2)c(C=O)n(C)c1C
inactive: [4] 99 % of control | [5] 98 % of control | [6] 91 % of control

C[N+](C)(CCCCOc1c(Br)cc(Br)cc1Br)Cc1ccc([N+](=O)[O-])o1
inactive: dose: 12.5 mg/kg/injection, schedule: Q04DX003 (ip), vehicle: Klucel (hydroxypropylcellulose) (HPC) 100 % of control | dose: 25.0 mg/kg/injection, schedule: Q04DX003 (ip), vehicle: Klucel (hydroxypropylcellulose) (HPC) 101 % of control | dose: 50.0 mg/kg/injection, schedule: Q04DX003 (ip), vehicle: Klucel (hydroxypropylcellulose) (HPC) 100 % of control

CC(C)c1nnc2cc3oc4ccccc4c3cc2c1N
inactive: dose: 6.25 mg/kg/injection, schedule: Q01DX005 (ip), vehicle: saline with Tween-80 100 % of control | [7] 96 % of control | [8] 106 % of control | [4] 106 % of control

C/C=C1\C[N+]2(C)CCC34c5ccccc5NC32C(O)CC1C4(CO)C(=O)OC (stereo unspecified)
inactive: dose: 4.0 mg/kg/injection, schedule: Q01DX009 (ip), vehicle: saline with Tween-80 110 % of control | dose: 4.0 mg/kg/injection, schedule: Q01DX009 (ip), vehicle: saline 113 % of control | dose: 8.0 mg/kg/injection, schedule: Q01DX009 (ip), vehicle: saline with Tween-80 110 % of control | dose: 8.0 mg/kg/injection, schedule: Q01DX009 (ip), vehicle: saline 97 % of control | dose: 16.0 mg/kg/injection, schedule: Q01DX009 (ip), vehicle: saline with Tween-80 103 % of control | dose: 16.0 mg/kg/injection, schedule: Q01DX009 (ip), vehicle: saline 105 % of control | dose: 32.0 mg/kg/injection, schedule: Q01DX009 (ip), vehicle: saline with Tween-80 110 % of control | dose: 32.0 mg/kg/injection, schedule: Q01DX009 (ip), vehicle: saline 98 % of control

COc1ccc2c(c1)CC[n+]1c-2ccc2c1CCC2=O
inactive: [4] 111 % of control

Cc1cc(C)[nH]c(=O)c1
inactive: [3] 100 % of control | [9] 100 % of control | [10] 109 % of control

O=[N+]([O-])c1cccc(C(O)(C(F)(F)F)C(F)(F)F)c1
inactive: [1] 95 % of control | [2] 97 % of control | [3] 106 % of control | dose: 100.0 mg/kg/injection, schedule: Q04DX002 (ip), vehicle: suspension in saline 112 % of control | [9] 98 % of control

O=C(Nc1cccc(Cl)c1)ON1C(=O)C2C(C1=O)C1(Cl)C(Cl)C(Cl)C2(Cl)C1(Cl)Cl (stereo unspecified)
inactive: [2] 103 % of control and 110 % of control | [3] 110 % of control and 112 % of control and 120 % of control | [9] 106 % of control and 124 % of control | [10] 108 % of control and 110 % of control

Clc1nc(SC2=NCCN2)c2[nH]cnc2n1
inactive: dose: 5.0 mg/kg/injection, schedule: Q01DX009 (ip), vehicle: saline with Tween-80 100 % of control and 92 % of control | dose: 10.0 mg/kg/injection, schedule: Q01DX009 (ip), vehicle: saline with Tween-80 104 % of control and 113 % of control | dose: 20.0 mg/kg/injection, schedule: Q01DX009 (ip), vehicle: saline with Tween-80 105 % of control | dose: 40.0 mg/kg/injection, schedule: Q01DX009 (ip), vehicle: saline with Tween-80 100 % of control

CC(C)CCN(CCC(C)C)CC(O)c1cc2c(c3ccccc13)CCCC2 (stereo unspecified)
inactive: [7] 96 % of control | [8] 93 % of control | [4] 103 % of control and 93 % of control | [5] 113 % of control | [6] 108 % of control

CC(C)(C)OC(=O)NC(Cc1ccccc1)C(=O)O (stereo unspecified)
inactive: dose: 6.25 mg/kg/injection, schedule: Q01DX009 (ip), vehicle: Klucel (hydroxypropylcellulose) (HPC) 101 % of control and 105 % of control | dose: 12.5 mg/kg/injection, schedule: Q01DX009 (ip), vehicle: Klucel (hydroxypropylcellulose) (HPC) 107 % of control | dose: 25.0 mg/kg/injection, schedule: Q01DX009 (ip), vehicle: Klucel (hydroxypropylcellulose) (HPC) 100 % of control and 88 % of control | dose: 50.0 mg/kg/injection, schedule: Q01DX009 (ip), vehicle: Klucel (hydroxypropylcellulose) (HPC) 111 % of control and 88 % of control | dose: 100.0 mg/kg/injection, schedule: Q01DX009 (ip), vehicle: Klucel (hydroxypropylcellulose) (HPC) 110 % of control and 97 % of control | dose: 200.0 mg/kg/injection, schedule: Q01DX009 (ip), vehicle: Klucel (hydroxypropylcellulose) (HPC) 107 % of control and 97 % of control

C=CC(c1ccccc1)c1cc2c(cc1OCCC)OCO2 (stereo unspecified)
inactive: dose: 50.0 mg/kg/injection, schedule: Q01DX005 (ip), vehicle: Klucel (hydroxypropylcellulose) (HPC) 98 % of control | dose: 100.0 mg/kg/injection, schedule: Q01DX005 (ip), vehicle: Klucel (hydroxypropylcellulose) (HPC) 96 % of control | dose: 200.0 mg/kg/injection, schedule: Q01DX005 (ip), vehicle: Klucel (hydroxypropylcellulose) (HPC) 105 % of control
